Data set [1] can be described thus: CD spectroscopy, helicity. The conditions noted are these: CD at 50 µM, 5 °C, 25 mM sodium phosphate pH 6.8, 154 mM NaCl; for % Helicity: from MRE222 (100% = −38). The data set is classed as physicochemical. From the text: (§1) Next, we used circular dichroism (CD) spectroscopy to probe the secondary structures of these WT CCD peptide assemblies. […] The spectra all had minima at 208 and 222 nm indicative of largely α-helical structures. From the high-concentration spectra we estimated ≈47% helix. To compare how the stabilities of these helical assemblies changed with concentration, we followed the changes in MRE222 with temperature over the same concentration range (Figure 2D, Table S1). Sigmoidal curves indicative of cooperative unfolding were apparent at all concentrations, indicating a cooperatively folded, oligomeric species. […] The temperature-dependent CD measurements were performed to determine the oligomerization-dependent thermal stability of the CCD. […] CD spectra of the peptides were recorded using a J-810 spectropolarimeter (Jasco) in a 0.1 cm and 1 cm quartz cuvette for far-UV CD spectroscopy, in a spectral range of 190 nm to 260 nm. The buffer used in the CD measurements was 25 mM sodium phosphate buffer pH = 6.8 with ionic strength of 154 mM (adjected by NaCl). The thermal melting of all STIL CCD peptides were measured as described. The graphs were fitted to Boltzmann equation in order to generate the Tm. Normalization to mean residue ellipticity was performed. The 100% helicity was calculated (with normalization to the length of the peptide and the condition of the measurement) as MRE × 10^−3 of −38 (Deg × cm^2 × dmol^−1 × res^−1).

Data set [2] relates to STIL CCD peptide. The data set is described as follows: AUC sedimentation velocity (SV), oligomeric state. The following applies: for oligomeric state (average number of monomers in the oligomer): continuous c(s), 25 mM sodium phosphate pH 6.8, NaCl. The data set is classed as physicochemical. Here is the method:
Previously, we and others have shown by size-exclusion chromatography and multi-angle light scattering that the oligomerization of a STIL CCD peptide is concentration dependent. However, these studies were qualitative and the interaction was not quantified. To quantify the oligomerisation of the STIL CCD peptide, analytical ultracentrifugation (AUC) sedimentation velocity (SV) and sedimentation equilibrium (SE) experiments were performed (Figure 2A, Table 1 and Figures S4–S9, S18 and S19). AUC-SV experiments were conducted at several concentrations to explore how the oligomeric state changed with concentration in the low-to-high µM concentration range, and also to estimate the dissociation constants of the oligomerization of the STIL CCD peptide.
(§2) Analytical ultracentrifugation (AUC) experiments were carried out using a Beckman Optima XL-A or XL-I analytical ultracentrifuge. Measurements were performed at 20 °C unless otherwise stated, using an An-50 or An-60 rotor, in Sodium Phosphate Buffer pH 6.8 (25 mM Na2PO4 with addition of 137 mM NaCl, pH measured using Jenway (TM) 3510 benchtop and adjusted using 1M HCl and 1M NaOH solutions). The partial specific volume ( υ¯ ) for each peptide were calculated in Sedfit using values from Cohn and Edsall. The buffer densities and viscosities were calculated using UltraScan III [54].
Sedimentation velocity (SV) experiments were performed in EPON 2-channel centerpieces with quartz windows or aluminium centrepieces with sapphire windows. The samples were centrifuged at 50 or 60 krpm where stated, with absorbance measurements taken from a radial range of 5.7–7.3 cm. 120 scans were taken at 5 min intervals, the data were fit in Sedfit to a continuous c(s) distribution model at a 95% confidence level. The frictional ration and baseline were floated, and Time-invariant and Radial-invariant noise were fit. Initially data were fit between a range of Svedberg ratio of 0–15, but this was reduced to 0–3 for all data as there were no larger species. The residuals for each individual fit are shown in Figures S14–S17 as a bitmap in which the color indicates the difference between the model fit and the raw data over the radial range to which the data were fitted. The scans are in vertical chronological order.

Data set [3] deals with STIL CCD peptide. The experiment in a line: AUC-SE dimer-tetramer model, tetramerization KD. The data set is classed as binding. The following applies: any experimental conditions; KDs could not be measured. Here is the method: (§3) To quantify the dissociation constants of the possible monomer-dimer and dimer-tetramer transitions, we used fluorescence-based binding measurements. Using micro-scale thermophoresis, fluorescence measurements were taken at increasing concentrations of WT CCD peptide in a fixed background of 5 µM fluorophore-labelled peptide. […] Fitting the fluorescence data to the Hill equation provided a dissociation constant of 8 ± 2 µM and a cooperativity of 1.2 ± 0.3 (Figure 2B, Table S4). We interpret this as being for the monomer-dimer transition, and that the fluorescence measurements are insensitive to the higher-order oligomerization. […] To probe the possible dimer-tetramer transition, we turned to AUC-SE measurements with starting concentrations of 5, 10, and 20 µM of STIL WT CCD peptide (Figures S18 and S19). The equilibrated data were fitted first to a model for a single ideal species, which provided a species 2.9 × monomer mass (Table 1). […] It should be noted that the dimerization constant of the WT peptide was measured in the presence of 5% DMSO and using a fluorophore-labeled peptide, while the tetramerization constant was measured without DMSO and unlabeled peptides. The addition of the label and the presence of the DMSO, which was unavoidable for making the labeled peptide soluble, may have affected the measured dimerization constant. Thus, we avoid directly comparing the values obtained by the two methods.
Analytical ultracentrifugation (AUC) experiments were carried out using a Beckman Optima XL-A or XL-I analytical ultracentrifuge. Measurements were performed at 20 °C unless otherwise stated, using an An-50 or An-60 rotor, in Sodium Phosphate Buffer pH 6.8 (25 mM Na2PO4 with addition of 137 mM NaCl, pH measured using Jenway (TM) 3510 benchtop and adjusted using 1M HCl and 1M NaOH solutions). The partial specific volume ( υ¯ ) for each peptide were calculated in Sedfit using values from Cohn and Edsall. The buffer densities and viscosities were calculated using UltraScan III [54]. […]

Data set [4] concerns STIL CCD peptide. The data set is described as follows: AUC sedimentation equilibrium (SE), oligomeric state. The following applies: absorbance 225 nm, 95% confidence limits; for AUC oligomeric state, SE: starting concentrations 5, 10, 20 µM, single ideal species fit, 20 °C, 25 mM phosphate pH 6.8; for mass, single species model, SE: starting concentrations 20, 10 and 5 µM. The data set is classed as physicochemical. Here is the method: as §3, §2
AUC sedimentation equilibrium (SE) experiments were run at multiple concentrations in a 6-Channel Epon charcoal-filled centerpiece. The samples were centrifuged at a range of speeds between 22–48 krpm. Absorbance scans across the radial range were recorded twice at each speed to ensure equilibration. Data were fitted to single, ideal species models or monomer-dimer equilibrium using Sedphat. In total, 95% confidence limits were obtained via Monte-Carlo analysis of the obtained fits. The quality of the fit was evaluated using the χ^2 parameter to observe which model best fit the data. Both fits of the data, where performed in Figures S18–S23 with their corresponding fit information.

Data set [5] is classed as physicochemical. The conditions noted are these: 50 µM; CD 222 nm, Boltzmann fit, 25 mM sodium phosphate pH 6.8, 154 mM NaCl.
From the text: as §1

Data set [6] concerns the molecule itself. The data set is described as follows: AUC; sedimentation velocity, 100 µM peptide, c(s) distribution; 20 °C, sodium phosphate pH 6.8 with NaCl.
Data set [7] concerns the molecule itself. The experiment in a line: AUC; sedimentation velocity, 10 µM peptide, c(s) distribution; 20 °C, 25 mM sodium phosphate pH 6.8, ionic strength 154 mM (NaCl).
Data set [8] deals with the molecule itself. The experiment in a line: AUC; sedimentation equilibrium, starting concentrations 5, 10 and 20 µM, unlabelled peptide, no DMSO; 20 °C, sodium phosphate pH 6.8 with NaCl; fitted to a single ideal species (N) and, for the WT, to a dimer-tetramer model (apparent KD: tetramer to dimers).
The mark [9] stands for this setting: 10 µM in legend of Figure S17 (second fit), 60 krpm.
The mark [10] stands for this setting: 10 µM, AUC-SV, 60 krpm, 20 °C, pH 6.8.
Setting [11] is: 10 µM, AUC-SV, 60 krpm, 20 °C, pH 6.8, 95% confidence level.
[12] abbreviates: 10 µM, AUC-SV, 60 krpm, 20 °C, absorbance, 95% confidence level.
The mark [13] stands for this setting: 100 µM, AUC-SV, 60 krpm, pH 6.8.

The text below walks through data of article PMC10572602, “Molecular Mechanism of STIL Coiled-Coil Domain Oligomerization” (International Journal of Molecular Sciences, 2023).

No end group written: not given here.

Take “L SPDLYRF LTELDRQ LRLLQAQ IQRLLEA QSL-NH2 [STIL CCD718–749 A722L Q729L, STIL CCD peptide, double mutant of A722L and Q729L]”: in data set [1], the MRE222 nm is listed as −30.7 kdeg cm^2 dmol^−1 res^−1 and the “% Helicity” value came out at 81%. Besides, the “Oligomeric State (at 10 µM)” value with STIL CCD peptide [2] (10 µM) is recorded as “Tetramer”. Besides, in the data set on STIL CCD peptide [2] (setting [9]), the f/f0 came out at 1.390, the sw was found to be 1.483 S and the “sw(20,w)” value was found to be 1.530 S. The “mw (solution mass from c(s) fit)” value in the data set on STIL CCD peptide [2] (10 µM in legend of Figure S17 (second fit), 60 krpm, 95% confidence level) is on record as 16134 Da. For the same molecule, the “oligomeric state (multiple of monomer mass)” value in the data set on STIL CCD peptide [2] (10 µM in legend of Figure S17 (second fit), AUC-SV, 60 krpm, 95% confidence level) is reported as 4.2 × monomer mass. This molecule had a sw with STIL CCD peptide [2] (setting [10]) of 1.452 S. Further, in the data set on STIL CCD peptide [2] (setting [11]), the “mw (solution mass from c(s) fit)” value was 16229 Da. In addition, in the data set with STIL CCD peptide [2] (10 µM, AUC-SV, 60 krpm, pH 6.8), the f/f0 is 1.411 and the “sw(20,w)” value is given as 1.499 S. Besides, the “oligomeric state (average number of monomers in the oligomer)” value in the data set with STIL CCD peptide [2] (setting [12]) is 4.22 × monomer mass. In addition, in the data set on STIL CCD peptide [2] (10 µM, AUC-SV, 60 krpm, 20 °C, absorbance, 95% confidence level, listed as STIL-A722L-Q729L), the “oligomeric state (average number of monomers in the oligomer)” value is listed as 4.2 × monomer mass. The “dissociation of tetramer (in words)” value in the data set on STIL CCD peptide [3] was “could not be dissociated under any experimental conditions”. Moreover, in the data set on STIL CCD peptide [4], the “AUC oligomeric state, SE” value is recorded as 3.24 ± 0.03 (5, 10, 20 µM) × monomer mass and the “mass, single species model, SE” value came to 12446 ± 129 Da. Further, the Tm in data set [5] was >95 °C.

On to “L SPDAYRF LTELDRQ LRLLQAQ IQRLLEA QSL-NH2 [STIL CCD718–749 Q729L, STIL CCD peptide with stabilising Q729L mutation; PDB 8oyl]”, for which, in data set [1], the MRE222 nm was −25.3 kdeg cm^2 dmol^−1 res^−1. Further, in data set [1], the “% Helicity” value worked out at 67%. Further, the “Oligomeric State (at 10 µM)” value in the data set on STIL CCD peptide [2] (10 µM) is reported as “Tetramer”. Further, the sw in the data set on STIL CCD peptide [2] (setting [10]) is reported as 1.484 S; in the data set on STIL CCD peptide [2] (100 µM, AUC-SV, 60 krpm, 20 °C, pH 6.8), 1.573 S. For the same molecule, the “mw (solution mass from c(s) fit)” value was 13538 Da with STIL CCD peptide [2] (setting [11]) and 15867 Da with STIL CCD peptide [2] (100 µM, AUC-SV, 60 krpm, 20 °C, pH 6.8, 95% confidence level). Further, the f/f0 with STIL CCD peptide [2] (10 µM, AUC-SV, 60 krpm, pH 6.8) was 1.250; in the data set with STIL CCD peptide [2] (setting [13]) it was 1.323. Moreover, the “sw(20,w)” value in the data set on STIL CCD peptide [2] (10 µM, AUC-SV, 60 krpm, pH 6.8) is 1.531 S; with STIL CCD peptide [2] (setting [13]) it was 1.622 S. Besides, the “oligomeric state (average number of monomers in the oligomer)” value with STIL CCD peptide [2] (setting [12]) is recorded as 3.56 × monomer mass; with STIL CCD peptide [2] (100 µM, AUC-SV, 60 krpm, 20 °C, 95% confidence level, listed as STIL-Q729L) it was 4.1 × monomer mass. Also, the “dissociation of tetramer (in words)” value in the data set with STIL CCD peptide [3] is reported as “could not be dissociated under any experimental conditions”. The “AUC oligomeric state, SE” value in the data set with STIL CCD peptide [4] was 3.47 ± 0.05 (5, 10, 20 µM) × monomer mass. For the same molecule, in the data set on STIL CCD peptide [4], the “mass, single species model, SE” value stood at 13373 ± 200 Da. Also, the Tm in data set [5] was >95 °C.

B1: STIL CCD_(718–749) Q729L (peptide)
peptide: LSPDAYRFLTELDRQLRLLQAQIQRLLEAQSL-NH2
notes: STIL coiled-coil domain, residues 718-749, with Q729L; also called STIL CCD Q729L; source: synthetic peptide (Fmoc-SPPS on rink amide, RP-HPLC purified)
By stoichiometry N is commonly meant the number of molecules, sites or subunits per partner or assembly. Regarding B1, the “stoichiometry N” value was 4 in data set [6], 3.56 in data set [7] and 3.47 ± 0.05 in data set [8].

B2: STIL CCD_(718–749) A722L Q729L (peptide)
peptide: LSPDLYRFLTELDRQLRLLQAQIQRLLEAQSL-NH2
notes: STIL coiled-coil domain, residues 718-749, with A722L and Q729L; also called double mutant; source: synthetic peptide (Fmoc-SPPS on rink amide, RP-HPLC purified)
For the molecule B2, the “stoichiometry N” value in data set [6] was found to be 4; in data set [7], 4.22; in data set [8] it was 3.24 ± 0.03.

B3: STIL CCD_(718–749) A722L (peptide)
peptide: LSPDLYRFLTEQDRQLRLLQAQIQRLLEAQSL-NH2
notes: STIL coiled-coil domain, residues 718-749, with A722L; source: synthetic peptide (Fmoc-SPPS on rink amide, RP-HPLC purified)
B3: the “stoichiometry N” value in data set [6] is 4; in data set [7] it was 3.92; in data set [8], 3.51 ± 0.02.
